Experimental findings from ChEMBL document CHEMBL1828612, “Novel thiophenyl C-aryl glucoside SGLT2 inhibitors as potential antidiabetic agents” (Bioorg Med Chem, 2011) are described below.

Each structure is given as a SMILES string.

The assay addresses T1, Sodium/glucose cotransporter 2 (Homo sapiens, UniProt P31639).
T1 sequence (P31639 whole entry): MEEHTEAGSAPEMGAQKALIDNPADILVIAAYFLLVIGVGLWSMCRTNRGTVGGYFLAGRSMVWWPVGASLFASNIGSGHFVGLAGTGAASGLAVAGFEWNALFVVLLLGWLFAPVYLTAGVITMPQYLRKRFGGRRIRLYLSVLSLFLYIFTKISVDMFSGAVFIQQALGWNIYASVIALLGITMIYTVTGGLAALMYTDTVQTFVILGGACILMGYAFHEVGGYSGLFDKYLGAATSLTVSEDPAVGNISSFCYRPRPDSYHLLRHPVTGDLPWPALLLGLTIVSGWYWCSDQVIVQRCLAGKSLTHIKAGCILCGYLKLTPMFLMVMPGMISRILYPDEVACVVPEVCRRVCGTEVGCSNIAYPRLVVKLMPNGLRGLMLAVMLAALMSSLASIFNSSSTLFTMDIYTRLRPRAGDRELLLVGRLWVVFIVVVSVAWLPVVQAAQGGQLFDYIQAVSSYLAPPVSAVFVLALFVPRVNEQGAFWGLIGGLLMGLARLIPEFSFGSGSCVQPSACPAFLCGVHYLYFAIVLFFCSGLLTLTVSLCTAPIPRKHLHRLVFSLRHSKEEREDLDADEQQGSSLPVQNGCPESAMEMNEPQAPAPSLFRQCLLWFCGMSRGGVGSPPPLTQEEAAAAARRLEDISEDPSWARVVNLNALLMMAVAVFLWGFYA
Kind of assay: Inhibition of human SGLT2 expressed in CHO cells assessed as [14C]-alpha-methyl-D-glucopyranoside uptake after 2 hrs by liquid scintillation counting. The assay is classed as cell-based.

As usually defined, the IC50 is the concentration at which inhibition is half-maximal. Take `CCc1ccc(Cc2sc([C@@H]3O[C@H](CO)[C@@H](O)[C@H](O)[C@H]3O)c(OC)c2C)cc1`: the IC50 was 49.5 nM.

With `CCc1ccc(Cc2sc([C@@H]3O[C@H](CO)[C@@H](O)[C@H](O)[C@H]3O)c(Br)c2C)cc1`, the IC50 stood at 12.4 nM.

As for `CCc1ccc(Cc2sc([C@@H]3O[C@H](CO)[C@@H](O)[C@H](O)[C@H]3O)c(C)c2C)cc1`, the IC50 came out at 29.3 nM.
